According to US11578055B2, “Triazacyclododecansulfonamide (“TCD”)-based protein secretion inhibitors” (KEZAR LIFE SCIENCES, priority 2018, dated 2023):
Like-named read-outs stand apart in the source and are kept apart here.

Assays:
[1] = system: multiple myeloma cell line NCl-H929; experiment: H929 Cell Viability Assay; type: cell-based, human; settings: Homo sapiens, NCI-H929, 48 h
In short: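 Viability was determined by CellTiter-Glo luminescence after a 48 h, 37 °C exposure of NCI-H929 cells to serial compound dilutions in medium containing 10% FBS. Where stereochemistry is not shown, values refer to a mix of stereoisomers.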

[2] = system: full length TNFα (amino acids 1-233) fused to Gaussia Luciferase; experiment: Dox Induced TNFα-FL-Gluc Assay; type: cell-based; settings: 24 hr, read-out: 24 hr Dox Inducible TNFaFLGluc 293FRT/TO: Mean IC50
In short: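 Compounds diluted in DMSO/medium with doxycycline were incubated at 37° C, 5% CO2 with 293 T-REx cells stably carrying a Tet-regulated TNFα(1-233)-Gaussia luciferase construct. Data for structures drawn without stereochemistry refer to stereoisomer mixtures.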

[3] = system: multiple myeloma cell line U266B1; experiment: U266 Cell Viability Assay; type: cell-based, human; settings: Homo sapiens, U-266, 48 hr
In short: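 Viability was measured by CellTiter-Glo luminescence after 48 h compound exposure at 37° C, 5% CO2. The cells were U266B1 multiple myeloma cells grown in RPMI 1640 plus 10% FBS. Where stereochemistry is not shown, values apply to the stereoisomer mixture.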

[4] = system: PD1 signal sequence plus 10 amino acids fused to Gaussia Luciferase (PD1-ss+10aa/Gaussia Luciferase); experiment: Dox Induced PD1-ss-Gluc Assay; type: cell-based; settings: 24 hr, read-out: 24 hr Dox Inducible PD1ssGluc 293FRT/TO: Mean IC50
In short: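 Compound dilutions in DMSO/media containing doxycycline were applied to a stable, inducible 293 T-REx line carrying the luciferase fusion, then incubated at 37 °C, 5% CO2. Where stereochemistry is not drawn, values relate to isomer mixtures.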

[5] = system: HER3 signal sequence plus 4 amino acids fused to Gaussia Luciferase (HER3-ss+4aa/Gaussia Luciferase); experiment: Dox Induced HER3-ss-Gluc Assay; type: cell-based; settings: 24 hr, doxycycline induced, Flp-In 293 T-REx cells; read-out: 24 hr Dox Inducible Her3(ss + 4) Gluc 293FRT/TO: Mean 1050
Description: FIp-In 293 T-REx™ cells were transfected with pcDNA™5/FRT/TO plasmid inserted with cDNA encoding Gaussia Luciferase fused to the 3′ end of cDNA encoding HER3 signal sequence plus 4 amino acids (N-[…]-C) (SEQ ID NO: 2). Transfected cells were selected for resistance to the selectable markers Hygromycin and Blasticidin to create a stable cell line that contained the HER3-ss+4aa/Gaussia Luciferase cDNA insert whose expression was regulated under the T-REx™ system. The day before assay, cells were trypsinized and plated in 384-well tissue culture plates. The next day, compound dilutions in DMSO/media containing doxycycline were added to the wells and incubated at 37° C., 5% CO2.
For chemical structures that include one or more stereoisomers, but are illustrated without indicating stereochemistry, the assay data refers to a mixture of stereoisomers.

[6] = system: full length IL-2 (amino acids 1-153) fused to Gaussia Luciferase; experiment: Dox Induced IL2-FL-Gluc Assay; type: cell-based; settings: 24 hr, read-out: 24 hr Dox Inducible IL2FLGluc 293FRT/TO: Mean IC50
In short: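 Compounds in DMSO/media with doxycycline were added to cells plated the previous day and incubated at 37° C, 5% CO2. Cells: stable Flp-In 293 T-REx line, Dox-regulated expression of IL-2 (aa 1-153) fused at its C-terminus to Gaussia luciferase.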

[7] = In Vitro Microsome Stability Assay (human); type: in vitro ADME
In short: (§1)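 The value reported is the percentage of parent left after 30 min, calculated from analyte/IS peak-area ratios relative to time zero by LC-MS/MS. Incubations ran at 37° C in 0.1 M potassium phosphate with NADPH and microsomes (stock 20 mg/mL), with compound added from a 0.25 mM DMSO stock. Acetonitrile containing IS stopped the reactions.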

[8] = In Vitro Microsome Stability Assay (mouse); type: in vitro ADME
In short: as §1

[9] = In Vitro Microsome Stability Assay (monkey); type: in vitro ADME
In short: as §1

[10] = In Vitro Microsome Stability Assay (rat); type: in vitro ADME
In short: as §1

[11] = human liver microsomes, 30 min w/ NADPH
[12] = mouse liver microsomes, 30 min w/ NADPH
[13] = monkey liver microsomes, 30 min w/ NADPH
[14] = rat liver microsomes, 30 min w/ NADPH
[15] = H929, read-out: 48 hr H929 Viability Celltiter-Glo: Mean EC50
[16] = U266, read-out: 48 hr U266 Viability Celltiter-Glo: Mean EC50

| Structure (SMILES) | EC50 ([1]; H929, Celltiter-Glo) [nM] | IC50 ([2]; Dox inducible, 293FRT/TO cells) [nM] | EC50 ([3]; U266, Celltiter-Glo) [nM] | IC50 ([4]; Dox inducible, 293FRT/TO cells) [nM] | IC50 [5] [nM] | IC50 ([6]; Dox inducible, 293FRT/TO cells) [nM] | Liver Microsome Stability-% Left after 30 min w/ NADPH (%) Human [7, 11] [%] | Liver Microsome Stability-% Left after 30 min w/ NADPH (%) Mouse [8, 12] [%] | Liver Microsome Stability-% Left after 30 min w/ NADPH (%) Monkey [9, 13] [%] | Liver Microsome Stability-% Left after 30 min w/ NADPH (%) Rat [10, 14] [%] | Liver Microsome Stability-% Left after 30 min w/ NADPH (%) Human ([7]; human, 30 min, NADPH) [%] | EC50 [1, 15] [nM] | Liver Microsome Stability-% Left after 30 min w/ NADPH (%) Mouse ([8]; mouse, 30 min, NADPH) [%] | IC50 ([2]; 293FRT/TO) [nM] | EC50 [3, 16] [nM] | Liver Microsome Stability-% Left after 30 min w/ NADPH (%) Monkey ([9]; monkey, 30 min, NADPH) [%] | Liver Microsome Stability-% Left after 30 min w/ NADPH (%) Rat ([10]; rat, 30 min, NADPH) [%] | IC50 ([4]; 293FRT/TO) [nM] | IC50 ([6]; 293FRT/TO) [nM] |
| --- | --- | --- | --- | --- | --- | --- | --- | --- | --- | --- | --- | --- | --- | --- | --- | --- | --- | --- | --- |
| COc1cc(F)cc(N2CCN(S(=O)(=O)N3CCCN(CC4CCCCC4)CCCN(S(=O)(=O)c4ccc(N(C)C)cc4)C[C@H](C)C3)C[C@H]2C)c1 [A196] | > 25000 | 1470 | > 25000 | 31 | 78.2 | 105 |  |  |  |  |  |  |  |  |  |  |  |  |  |
| Cc1ccc(CN2CCCN(S(=O)(=O)c3ccc(N(C)C)cc3)C[C@H](C)CN(S(=O)(=O)N3CCc4cc(Cl)ccc4C3)CCC2)cc1 [A131, 4-{[(3S)-5-[(6-chloro-1,2,3,4-tetrahydroisoquinolin-2-yl)sulfonyl]-3-methyl-9-[(4-methylphenyl)methyl]-1,5,9-triazacyclododecan-1-yl]sulfonyl}-N,N-dimethylaniline] | 4740 | 2400 | > 25000 | 145 |  | 426 | 84.5 | 101 | 70.2 | 73.9 |  |  |  |  |  |  |  |  |  |
| CCc1ccc2c(c1)CCN(S(=O)(=O)N1CCCN(CC3CCCCC3)CCCN(S(=O)(=O)c3ccc(N(C)C)cc3)C[C@H](C)C1)C2 [A136, 4-{[(3S)-9-(cyclohexylmethyl)-5-[(6-ethyl-1,2,3,4-tetrahydroisoquinolin-2-yl)sulfonyl]-3-methyl-1,5,9-triazacyclododecan-1-yl]sulfonyl}-N,N-dimethylaniline] | 1730 | 544 | > 25000 | 26.5 |  | 101 | 65.3 | 14.3 | 23.2 | 26.6 |  |  |  |  |  |  |  |  |  |
| Cc1cc(F)ccc1N1CCN(S(=O)(=O)N2CCCN(CC3CCCCC3)CCCN(S(=O)(=O)c3ccc(N(C)C)cc3)C[C@H](C)C2)[C@@H](C)C1 [A162, 4-{[(3S)-9-(cyclohexylmethyl)-5-{[(2 S)-4-(4-fluoro-2-methylphenyl)-2-methylpiperazin-1-yl]sulfonyl}-3-methyl-1,5,9-triazacyclododecan-1-yl]sulfonyl}-N,N-dimethylaniline] | > 25000 | 6260 | > 25000 | 101 |  | 201 | 70.5 | 62.5 | 60.3 | 69.6 |  |  |  |  |  |  |  |  |  |
| C[C@H]1CN(S(=O)(=O)c2ccc(N(C)C)cc2)CCCN(CC2CCCCC2)CCCN(S(=O)(=O)N2CCN(c3ccccc3F)CC2)C1 [A94, 4-{[(3S)-9-(cyclohexylmethyl)-5-{[4-(2-fluorophenyl)piperazin-1-yl]sulfonyl}-3-methyl-1,5,9-triazacyclododecan-1-yl]sulfonyl}-N,N-dimethylaniline] |  |  |  |  |  |  |  |  |  |  | 42.1 | 800 | 45.7 | 550 | > 25000 | 30.3 | 45.5 | 36.4 | 78.3 |
| C[C@@H]1CCN(S(=O)(=O)c2ccc(N(C)C)cc2)CCCN(CC2CCCCC2)CCCN1S(=O)(=O)N1CCc2cc(Cl)ccc2C1 [A148, 4-{[(4 R)-5-[(6-chloro-1,2,3,4-tetrahydroisoquinolin-2-yl)sulfonyl]-9-(cyclohexylmethyl)-4-methyl-1,5,9-triazacyclododecan-1-yl]sulfonyl}-N,N-dimethylaniline] | > 25000 | > 25000 | > 25000 | 926 |  | 1120 | 0.52 | 1.59 | 0.67 | 1.29 |  |  |  |  |  |  |  |  |  |
| Cc1cc(F)ccc1N1CCN(S(=O)(=O)N2CCCN(CC3CCCCC3)CCCN(S(=O)(=O)c3ccc(N(C)C)cc3)C[C@H](C)C2)CC1 [A102, 4-{[(3S)-9-(cyclohexylmethyl)-5-{[4-(4-fluoro-2-methylphenyl)piperazin-1-yl]sulfonyl}-3-methyl-1,5,9-triazacyclododecan-1-yl]sulfonyl}-N,N-dimethylaniline] | 558 | 477 | > 25000 | 33.4 |  | 90.5 | 62.3 | 86.6 | 70 | 101.9 |  |  |  |  |  |  |  |  |  |
| CC(C)N1CCCN(S(=O)(=O)c2ccc(N(C)C)cc2)C[C@H](C)CN(S(=O)(=O)N2CCc3cc(Cl)ccc3C2)CCC1 [A141, 4-{[(3S)-5-[(6-chloro-1,2,3,4-tetrahydroisoquinolin-2-yl)sulfonyl]-3-methyl-9-(propan-2-yl)-1,5,9-triazacyclododecan-1-yl]sulfonyl}-N,N-dimethylaniline] | 9110 | 4240 | > 25000 | 431 |  | 863 | 0.26 | 0.48 | 0.66 | 1.14 |  |  |  |  |  |  |  |  |  |
| C[C@H]1CN(S(=O)(=O)c2ccc(N(C)C)cc2)CCCN(CC2CCCCC2)CCCN(S(=O)(=O)N2CCN(c3ccc(F)cc3)CC2)C1 [A96, 4-{[(3S)-9-(cyclohexylmethyl)-5-{[4-(4-fluorophenyl)piperazin-1-yl]sulfonyl}-3-methyl-1,5,9-triazacyclododecan-1-yl]sulfonyl}-N,N-dimethylaniline] |  |  |  |  |  |  |  |  |  |  | 40.5 | 5100 | 37.6 | 1850 | > 25000 | 32.8 | 41.9 | 122 | 232 |
| C[C@H]1CN(S(=O)(=O)c2ccc(N(C)C)cc2)CCCN(CC2CCCC2)CCCN(S(=O)(=O)N2CCc3cc(Cl)ccc3C2)C1 [A157, 4-{[(3S)-5-[(6-chloro-1,2,3,4-tetrahydroisoquinolin-2-yl)sulfonyl]-9-(cyclopentylmethyl)-3-methyl-1,5,9-triazacyclododecan-1-yl]sulfonyl}-N,N-dimethylaniline] | 858 | 584 | > 25000 | 23.3 |  | 77.4 | 21.1 | 23.3 | 27.3 | 32.2 |  |  |  |  |  |  |  |  |  |
